Values of other authors as cited in paper PMC6243681 (Chemical Science, 2018).

stability in serum / to serum proteases: low stability
Sequence: THRPPMWSPVWP
